In patent publication US8551507B2, “Terpene glycosides and their combinations as solubilizing agents” (Board of Supervisors of Louisiana State University And …, priority 2009, dated 2013):
≈ marks a conversion by molar mass, not a printed value. Like-named read-outs stand apart in the source and are kept apart here.

Legend:
physchem [1] = details: water
[2] = Merck Index, Material Safety Data Sheets or general statement, cited from earlier work
[3] = Safety of daily consumption of steviol glycosides (estimates based on aglycone steviol); type: in vivo
[4] = 72 h
physchem [5] = details: 25 °C, water, thermodynamic from solid
[6] = cyclodextrins, comparison; cited from earlier work
[7] = Solubility test: low-solubility compound in water or in water solutions containing 10% w/v natural solubilizer, quantified by HPLC/LC-MS; details: 25° C. 72 hr; for Concentration in water solution With Geniposide: 10% w/v geniposide in water; for Concentration in water solution With Mogroside V: 10% w/v mogroside V in water; for Concentration in water solution With Paeoniflorin: 10% w/v paeoniflorin in water; for Concentration in water solution With Rebaudioside A: 10% w/v rebaudioside A in water; for Concentration in water solution With Rubusoside: 10% w/v rubusoside in water
[8] = in vivo; cited from earlier work
hypertensive rats = details: intraperitoneal, 50 mg/kg and 100 mg/kg body weight, hypertensive rats (Hsu et al. 2002); cited from earlier work

| Concentration in water solution With Astragaloside [4] [ng/mL] | Concentration in water solution With Geniposide [4] [ng/mL] | Concentration in water solution With Mogroside V [4] [ng/mL] | Concentration in water solution With Paeoniflorin [4] [ng/mL] | Concentration in water solution With Rubusoside [4] [ng/mL] | SMILES | Water solubility in words [2] | other results |
| --- | --- | --- | --- | --- | --- | --- | --- |
|  |  |  |  |  | C=C1C[C@@]23CC[C@H]4[C@@](C)(CCC[C@@]4(C)C(=O)O[C@@H]4O[C@H](CO)[C@@H](O)[C@H](O)[C@H]4O)[C@@H]2CC[C@]1(O[C@@H]1O[C@H](CO)[C@@H](O)[C@H](O)[C@H]1O)C3 [Rubusoside, b-D-glucosyl ester of 13-O-b-D-glucosyl-steviol] | good solubility in water | solubility (physchem [1]; 25 °C): ~400000 µg/mL (≈ 622 mM); solubility (physchem [1]; 37 °C): ~800000 µg/mL (≈ 1240 mM); No-observed-effect level ([3]; estimate based on 383 mg/kg body weight daily expressed as steviol): up to 766 mg rubusoside/kg body weight; Daily consumption that is safe and has no adverse effect ([3]; estimate based on the aglycone steviol): 8 mg rubusoside/kg body weight |
| 0 | 16000 | 18000 | 37000 | 150000 | COc1cc(C2Oc3cc([C@H]4Oc5cc(O)cc(O)c5C(=O)[C@@H]4O)ccc3OC2CO)ccc1O (some centres unmarked) [Silybin, silybin] |  | Solubility in water without solubilizer [4]: 0^2 μg/mL |
| 0 | 4000 | 44000 | 5000 | 262000 | COc1cc(/C=C/C(=O)CC(=O)/C=C/c2ccc(O)c(OC)c2)ccc1O [Curcumin, curcumin] | insoluble in water | Concentration in water solution With Steviol monoside [4]: 4000 ng/mL; Water solubility in words ([2]; listed as curcumin): insoluble |
| 400 | 48000 | 58000 | 565000 | 132000 | CC(C)/N=c1\cc2n(-c3ccc(Cl)cc3)c3ccccc3nc-2cc1Nc1ccc(Cl)cc1 [Clofazimine, clofazimine, reference compound] | practically insoluble in water | solubility at 72 h (physchem [5]): 7.6 µg/mL (≈ 0.0161 mM); Concentration in water solution With Rebaudioside A [4]: 109000 ng/mL; Concentration in water solution With Steviol monoside [4]: 0 ng/mL; Concentration in water solution With Stevioside [4]: 64000 ng/mL |
|  |  |  |  |  | OC[C@H]1O[C@@H]2O[C@H]3[C@H](O)[C@@H](O)[C@@H](O[C@H]4[C@H](O)[C@@H](O)[C@@H](O[C@H]5[C@H](O)[C@@H](O)[C@@H](O[C@H]6[C@H](O)[C@@H](O)[C@@H](O[C@H]7[C@H](O)[C@@H](O)[C@@H](O[C@H]1[C@H](O)[C@H]2O)O[C@@H]7CO)O[C@@H]6CO)O[C@@H]5CO)O[C@@H]4CO)O[C@@H]3CO [α-CD] |  | Solubility in water [6]: 15 g/100 mL |
| 0 | 100 | 500 | 23000 | 127000 | Cc1coc2c1C(=O)C(=O)c1c-2ccc2c1CCCC2(C)C [Tanshinone IIA, tanshinone IIA] |  | Solubility in water without solubilizer [4]: 0^2 μg/mL |
|  |  |  |  | 111000 | COC1=C(OC)C(=O)C(C/C=C(\C)CC/C=C(\C)CC/C=C(\C)CC/C=C(\C)CC/C=C(\C)CC/C=C(\C)CC/C=C(\C)CC/C=C(\C)CC/C=C(\C)CCC=C(C)C)=C(C)C1=O [Coenzyme Q10, coenzyme Q10] | insolubility in water |  |
| 0 | 3000 | 47000 | 253000 | 488000 | Cc1ccc(-c2cc(C(F)(F)F)nn2-c2ccc(S(N)(=O)=O)cc2)cc1 [Celecoxib, celecoxib, reference compound] | poor solubility in water | Solubility in water without solubilizer [4]: 0^2 μg/mL; Water solubility in words ([2]; listed as celecoxib): water insoluble |
| 0 | 146000 | 148000 | 218000 | 280000 | C[C@@H]1CC[C@H]2[C@@H](C)C(=O)O[C@@H]3O[C@@]4(C)CC[C@@H]1[C@]32OO4 [Artemisinin, artemisinin, reference compound] | poorly soluble | solubility at 72 h (physchem [5]): 53 µg/mL (≈ 0.188 mM); Water solubility in words ([2]; listed as artemisinin): insoluble |
|  | 1000 | 7000 | 20000 | 65000 | CC(=O)O[C@H]1C(=O)[C@@]2(C)[C@H]([C@H](OC(=O)c3ccccc3)[C@]3(O)C[C@H](OC(=O)[C@H](O)[C@@H](NC(=O)c4ccccc4)c4ccccc4)C(C)=C1C3(C)C)[C@]1(OC(C)=O)CO[C@@H]1C[C@@H]2O [Paclitaxel, paclitaxel, reference compound] | not soluble in water | Concentration in water solution With Rebaudioside A [4]: 26000 ng/mL; Water solubility in words ([2]; listed as paclitaxel): insoluble |
|  |  |  |  |  | CO[C@H]1C[C@H](O[C@H]2CC[C@@]3(C)[C@H](CC[C@@H]4[C@@H]3CC[C@]3(C)[C@@H](C5=CC(=O)OC5)[C@@H](OC(C)=O)C[C@]43O)C2)O[C@@H](C)[C@@H]1O [Oleandrin, oleandrin] | practically insoluble in water | solubility (physchem [5]): 3 µg/mL (≈ 0.0052 mM); Concentration in water solution With Geniposide [7]: 28000 ng/mL; Concentration in water solution With Mogroside V [7]: 47000 ng/mL; Concentration in water solution With Paeoniflorin [7]: 42000 ng/mL; Concentration in water solution With Rebaudioside A [7]: 67000 ng/mL; Concentration in water solution With Rubusoside [7]: 123000 ng/mL; Concentration in water solution With Stevioside ([7]; 10% w/v stevioside in water): 74000 ng/mL; Concentration in water solution With Astragaloside ([7]; nominal 10% w/v astragaloside IV in water (precipitated, less than 10%)): 5000 ng/mL; Concentration in water solution With Steviol monoside ([7]; nominal 10% w/v steviol monoside in water (precipitated, less than 10%)): 7000 ng/mL |
|  |  |  |  |  | C[C@H]1O[C@@H](O[C@H]2[C@@H](O)C[C@H](O[C@H]3[C@@H](O)C[C@H](O[C@H]4CC[C@@]5(C)[C@H](CC[C@@H]6[C@@H]5C[C@@H](O)[C@]5(C)[C@@H](C7=CC(=O)OC7)CC[C@]65O)C4)O[C@@H]3C)O[C@@H]2C)C[C@H](O)[C@@H]1O [Digoxin, digoxin] |  | solubility (physchem [5]): 19 µg/mL (≈ 0.0243 mM) |
|  |  |  |  |  | C=C1C[C@@]23CC[C@H]4[C@@](C)(CCC[C@@]4(C)C(=O)O)[C@@H]2CC[C@]1(O)C3 [steviol] |  | No-observed-effect level expressed as steviol [8]: 383 mg/kg body weight daily |
|  |  |  |  |  | CCC(C)n1ncn(-c2ccc(N3CCN(c4ccc(OCC5COC(Cn6cncn6)(c6ccc(Cl)cc6Cl)O5)cc4)CC3)cc2)c1=O (centres unmarked) [itraconazole, reference compound] | practically insoluble in water |  |
|  |  |  |  |  | CC[C@@]1(O)C(=O)OCc2c1cc1n(c2=O)Cc2cc3ccccc3nc2-1 [Camptothecin, camptothecin] | poor solubility in water | Concentration in water solution With Geniposide [7]: 25000 ng/mL; Concentration in water solution With Mogroside V [7]: 18000 ng/mL; Concentration in water solution With Paeoniflorin [7]: 53000 ng/mL; Concentration in water solution With Paeoniflorin ([7]; listed as camptothecin): 54000 ng/mL; Concentration in water solution With Rebaudioside A [7]: 48000 ng/mL; Concentration in water solution With Rubusoside [7]: 61000 ng/mL; Water solubility in words ([2]; listed as camptothecin): insoluble |
|  |  |  |  |  | C=C1C[C@@]23CC[C@H]4[C@@](C)(CCC[C@@]4(C)C(=O)O[C@@H]4O[C@H](CO)[C@@H](O)[C@H](O)[C@H]4O)[C@@H]2CC[C@]1(O[C@@H]1O[C@H](CO)[C@@H](O)[C@H](O)[C@H]1O[C@@H]1O[C@H](CO)[C@@H](O)[C@H](O)[C@H]1O)C3 [stevioside] |  | Adverse effects (hypertensive rats): no adverse effects |
